# Legend:
# HepG2 cells [1] = experiment: In vitro transfection efficiency, luciferase expression, HepG2 cells; assay type: cell-based; conditions: for inhibition of transfection due to the presence of serum proteins (in words): presence vs absence of serum
# Description: (§1) The plasmid used is described in Patent WO 97/10343. This construct pCOR_pXL2774 comprises the gene encoding luciferase under the human cytomegalovirus very early gene promoter [hCMV-IE].
# (§2) The nucleic acid solutions are diluted to 20 μg/ml in physiological saline (0.15 M NaCl).
# (§3) The products described in the invention are dissolved in water at a concentration varying from 40 to 160 μmol and mixed volume for volume with the DNA solution. The final saline concentration is 75 mmol.
# HeLa cells [2] = experiment: In vitro transfection efficiency, luciferase expression, HeLa cells; assay type: cell-based; conditions: for inhibition of transfection due to the presence of serum proteins (in words): presence vs absence of serum
# Description: as §1, §2, §3
# HeLa cells [3] = experiment: Toxicity of cytofectant mixtures, protein concentrations in cell lysates, HeLa cells; assay type: cell-based; conditions: up to 160 μM of cationic lipid
# Description: (§4) The cells are cultured under appropriate conditions in 24-well microplates (2 cm^2/well) and are transfected while they are in the exponential growth phase and at 50-70% confluence.
# (§5) The cells are washed with twice 0.5 cm^3 of medium free of serum proteins and grown again either in serum-free medium (transfection in the absence of serum), or in complete medium (transfection in the presence of serum) 0.05 cm^3 of cytofectant mixture (0.5 μg DNA/well) are added to the cells (3 wells/condition DNA vector). When the cells are transfected in the absence of serum, the growth medium is supplemented 2 hours after transfection with the appropriate quantity of serum.
# (§6) The toxicity of the cytofectant mixtures is estimated by a measurement of the protein concentrations in the cell lysates.
# HepG2 cells [4] = experiment: Toxicity of cytofectant mixtures, protein concentrations in cell lysates, HepG2 cells; conditions: for toxicity (in words): up to 160 μM of cationic lipid
# Description: as §4, §5, §6
# [5] = Detergent action: solubilization of liposomes EPC/EPA (10:1) measured by turbidity; conditions: turbidity by spectrophotometer; compared with Triton X-100 (100% solubilization)
# Source text: For that, an in vitro model is used which represents the biological membranes, namely liposomes EPC/EPA (egg phosphatidylcholine/egg phosphatidic acid, 10:1).
# These liposomes are formed by dissolving the various constituents in chloroform, and then evaporating the said chloroform with the aid of a rotary evaporator. The lipid film obtained is redispersed in water, and then the liposomes are formed by sonication and heating.
# The evaluation of the detergent action of the product added to the liposomes is made by measuring the turbidity with the aid of a spectrophotometer.
# [6] = HepG2 cells, absence of serum proteins
# [7] = HeLa cells, absence of serum proteins
Molecule,inhibition of transfection due to the presence of serum proteins (in words) (HepG2 cells [1]; HepG2 cells),inhibition of transfection due to the presence of serum proteins (in words) (HeLa cells [2]; HeLa cells),toxicity (in words) (HeLa cells [3]),toxicity (in words) (HepG2 cells [4]),expression of the transgene compared with reference cationic lipid REF (HepG2 cells [1]; [6]),further results
NH2(CH2)3NH(CH2)4NH(CH2)3NHCH2COCys-[S—S—(CH2)4CH3]—N[(CH2)17CH3]2 [compound (I)],no significant inhibition,no significant inhibition,no significant toxicity,no significant toxicity,–,transfection results compared with reference cationic lipid REF (in words) (HepG2 cells [1]; [6]): same order of magnitude; transfection results compared with reference cationic lipid REF (in words) (HeLa cells [2]; [7]): same order of magnitude
NH2(CH2)3NH(CH2)4NH(CH2)3NHCH2COCyS-[S—S-Cholesterol]—NH(CH2)17CH3 [compound (V)],no inhibition could be observed,no inhibition could be observed,no significant toxicity,no significant toxicity,–,"gain in expression of the transgene, cholesterol instead of an alkyl chain (in words) (HepG2 cells [1]; HepG2 cells (FIG. 9)): very significant gain; gain in expression of the transgene, cholesterol instead of an alkyl chain (in words) (HeLa cells [2]; HeLa cells (FIG. 9)): very significant gain"
"CCCCCCCCCCCCCCCCCCNC(=O)C(CSSCC(NC(=O)CNCCCNCCCCNCCCN)C(=O)NCCCCCCCCCCCCCCCCCC)NC(=O)CNCCCNCCCCNCCCN (stereo not shown) [compound (VI), [NH2(CH2)3NH (CH2)4NH (CH2)3NHCH2CO—CyNH (CH2)17CH3]2]",–,–,–,–,–,"transgene expression in comparison with reference cationic lipid REF (HepG2 cells [1]; HepG2 cells, absence of serum (FIG. 3)): 4 times; survival (HepG2 cells [4]; transfection in the absence of serum proteins, cationic lipid dose 160 μM): 80%"
Triton X-100,–,–,–,–,–,solubilization of the liposomes [5]: 100%
NH2 (CH2)3NH(CH2)4NH(CH)3NHCH2COCys-[S—S—(CH2)17CH3]—NH (CH2)17CH3 [compound (II)],no inhibitory effect,–,–,no significant toxicity,up to 3 fold,"improvement of transfection compared with reference cationic lipid REF (HepG2 cells [1]; HepG2 cells, presence of serum proteins): up to 40 fold"
NH2(CH2)3NH(CH2)4NH(CH2)3NHCH2COCys-[S—S—(CH2)11CH3]—N[(CH2)17CH3]2 [compound (IV)],no significant inhibition,no significant inhibition,no significant toxicity,no significant toxicity,about 9 fold,expression of the transgene compared with reference cationic lipid REF (HeLa cells [2]; [7]): about 2 fold

# From patent publication US6521252B1, “Transfecting compounds which are sensitive to reducing conditions, pharmaceutical compositions containing them and their applications” (Aventis Pharma S.A., priority 1998, dated 2003)
